These results are taken from publication PMC8177813 (Journal of pharmaceutical sciences, 2020).

Counter-ions that a name gives are not always drawn. Like-named read-outs stand apart in the source and are kept apart here. Marks after values point to notes of the source that are not given here.

Data set [1] concerns the target T1, human OAT3 (Homo sapiens, UniProt Q8TCC7).
T1 sequence (Q8TCC7 1-542): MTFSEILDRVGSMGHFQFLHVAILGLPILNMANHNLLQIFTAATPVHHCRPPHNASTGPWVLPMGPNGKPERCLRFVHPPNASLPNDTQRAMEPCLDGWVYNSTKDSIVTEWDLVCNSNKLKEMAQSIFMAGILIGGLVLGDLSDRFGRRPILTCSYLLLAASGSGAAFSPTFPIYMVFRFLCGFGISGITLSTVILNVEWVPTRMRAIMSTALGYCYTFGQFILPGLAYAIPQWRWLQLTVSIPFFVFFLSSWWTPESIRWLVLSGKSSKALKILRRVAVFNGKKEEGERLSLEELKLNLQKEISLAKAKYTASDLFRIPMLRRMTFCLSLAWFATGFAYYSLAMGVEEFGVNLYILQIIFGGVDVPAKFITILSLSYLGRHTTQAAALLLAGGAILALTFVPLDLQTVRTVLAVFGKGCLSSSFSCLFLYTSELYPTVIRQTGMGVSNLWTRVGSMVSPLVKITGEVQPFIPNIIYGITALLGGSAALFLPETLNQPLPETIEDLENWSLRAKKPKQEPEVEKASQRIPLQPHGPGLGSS
Description: cell-based.

Another data set deals with T2, human OAT1 (Homo sapiens, UniProt Q4U2R8).
T2 sequence (Q4U2R8 1-563): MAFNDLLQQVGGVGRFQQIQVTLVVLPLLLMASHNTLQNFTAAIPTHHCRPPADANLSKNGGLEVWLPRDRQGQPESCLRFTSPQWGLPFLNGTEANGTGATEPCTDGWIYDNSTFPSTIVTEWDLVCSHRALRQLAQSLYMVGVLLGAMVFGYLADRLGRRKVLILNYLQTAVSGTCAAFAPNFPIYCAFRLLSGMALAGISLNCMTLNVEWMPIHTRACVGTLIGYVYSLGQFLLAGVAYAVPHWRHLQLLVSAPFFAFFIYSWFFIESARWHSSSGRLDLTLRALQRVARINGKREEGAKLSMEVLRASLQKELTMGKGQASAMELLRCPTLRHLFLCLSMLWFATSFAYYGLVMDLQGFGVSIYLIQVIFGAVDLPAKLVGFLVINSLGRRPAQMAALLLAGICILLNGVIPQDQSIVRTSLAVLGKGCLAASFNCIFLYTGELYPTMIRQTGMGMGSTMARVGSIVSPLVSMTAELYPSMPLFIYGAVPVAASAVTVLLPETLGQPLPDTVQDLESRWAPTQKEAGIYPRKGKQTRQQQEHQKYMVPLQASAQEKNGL
Description: Inhibition of OAT1-mediated 6-carboxyfluorescein.

Data set [2] concerns the target T1, human OAT3. Description: Inhibition of OAT3-mediated 6-carboxyfluorescein.
Data set [3] concerns the target T1, human OAT3.
For data set [4] the following is noted: cited from earlier work; for Unbound Fraction / Cmax: plasma.
The conditions of data set [5]: cited from earlier work.
For data set [6] the following is noted: cited from earlier work. This is another data set of the same source.
Where [7] appears, read: ref https://doi.org/10.1002/j.1552–4604.1993.tb04699.x.
Setting [8] is: ref https://doi.org/10.1124/jpet.110.165852.

By Ki is commonly meant a measure of affinity in units of concentration, obtained from inhibition or displacement. Turning to `CC(O)c1ccc(CCOc2ccc(CC3SC(=O)NC3=O)cc2)nc1` (stereo not drawn) [Hydroxy pioglitazone], the Ki on human OAT3 [1] amounted to 1.37 µM; on human OAT1, 27.6 µM.
Take `CN(CCOc1ccc(CC2SC(=O)NC2=O)cc1)c1ccc(OS(=O)(=O)O)cn1` (stereo not drawn) [5-OH-rosiglitazone sulfate]: the Ki on human OAT1 (read-out: Ki (OAT1)) worked out at 33.7 µM; on human OAT3 [2] (read-out: Ki (OAT3)) it was 1.31 µM.
`CCCN(CCC)S(=O)(=O)c1ccc(C(=O)O[C@@H]2O[C@H](C(=O)O)[C@@H](O)[C@H](O)[C@H]2O)cc1`: affinity at human OAT3 [3] was put at a Ki of 19.9 µM.
In the case of `CCCCc1nc(Cl)c(CO)n1Cc1ccc(-c2ccccc2-c2nn[nH]n2)cc1` [Losartan, reference compound], in data set [4] (ref Drugbank (https://www.drugbank.ca/drugs/DB00678)), the “Unbound Fraction” value is listed as 1.4%^d. Besides, the inhibition constant (Ki) at human OAT3 [1] was determined as 0.36 µM; at human OAT1, 11.4 µM.
Consider `CN1C(C(=O)Nc2ncc(C(=O)O)s2)=C(O)c2ccccc2S1(=O)=O` [5-Carboxy-meloxicam], for which the Ki at human OAT1 (read-out: Ki (OAT1)) worked out at 19.6 µM; on human OAT3 [2] (read-out: Ki (OAT3)) it was 0.7 µM.
In the same order, the values of `C[C@H](C(=O)O)c1ccc2cc(O)ccc2c1` [(S)-O-desmethyl naproxen] are 4.7 µM and 3.44 µM.
Turning to `Cc1c(CC(=O)O)c2cc(O)ccc2n1C(=O)c1ccc(Cl)cc1` [O-desmethyl indomethacin], the Ki came to 1.62 µM at human OAT1 (read-out: Ki (OAT1)) and 0.27 µM at human OAT3 [2] (read-out: Ki (OAT3)).
In the same order, the values of `CC(=O)c1ccc(CCOc2ccc(CC3SC(=O)NC3=O)cc2)nc1` (stereo not drawn) [Keto pioglitazone] are 12.5 µM and 0.73 µM.
For the compound `O=C(O)Cc1ccccc1Nc1c(Cl)cc(O)cc1Cl` [4-Hydroxy diclofenac], the Ki turned out to be 0.48 µM at human OAT1 (read-out: Ki (OAT1)) and 2.03 µM on human OAT3 [2] (read-out: Ki (OAT3)).
`CCc1ccc(CCOc2ccc(CC3SC(=O)NC3=O)cc2)nc1` (stereo not drawn) [Pioglitazone, reference compound]: the Ki at human OAT3 [1] is 1.02 µM; on human OAT1 it was 6.3 µM.
In the case of `CC1=C(CC(=O)O)c2cc(F)ccc2/C1=C\c1ccc([S+](C)[O-])cc1` (stereo not drawn) [Sulindac, reference compound], the “Unbound Fraction” value in data set [4] (setting [7]) is recorded as 6.78%^a. Moreover, the Ki worked out at 1.65 µM on human OAT3 [1] and 56.8 µM on human OAT1.
For `CC(C(=O)O)c1ccc(-c2ccccc2)c(F)c1` (stereo not drawn) [Flurbiprofen, reference compound], the values for the Ki on human OAT3 [1] and on human OAT1 were 1.8 µM and 1.91 µM, respectively.
For the compound `NS(=O)(=O)c1ccc(-n2nc(C(F)(F)F)cc2-c2ccc(C(=O)O)cc2)cc1` [Celecoxib carboxylic acid], in data set [5], the “acidic pKa” value is listed as 3.98. Also, the Ki on human OAT1 (read-out: Ki (OAT1)) is 262 µM; at human OAT3 [2] (read-out: Ki (OAT3)), 8.43 µM.
Regarding `Cc1cnc(NC(=O)C2=C(O)c3ccccc3S(=O)(=O)N2C)s1` [Meloxicam, reference compound], the Ki came out at 0.54 µM at human OAT3 [1] and 6.88 µM on human OAT1.
For the compound `CN(CCOc1ccc(CC2SC(=O)NC2=O)cc1)c1ccccn1` (stereo not drawn) [Rosiglitazone, reference compound], the Ki on human OAT3 [1] came out at 0.59 µM; on human OAT1, 4.2 µM.
For orientation: Cmax means the peak of the concentration-time curve. As for `CC1=C(CC(=O)O)c2cc(F)ccc2/C1=C\c1ccc(S(C)(=O)=O)cc1` [Sulindac sulfone], the Cmax in data set [4] (setting [7]) is 4.48 µM. In addition, the “Unbound Fraction” value in data set [4] (setting [8]) is 2.1%^b. Further, the Ki on human OAT1 (read-out: Ki (OAT1)) turned out to be 23 µM; on human OAT3 [2] (read-out: Ki (OAT3)) it was 0.6 µM.
For `CCCCc1nc(Cl)c(C(=O)O)n1Cc1ccc(-c2ccccc2-c2nn[nH]n2)cc1` [Losartan carboxylic acid], the plasma unbound fraction result in data set [4] (no reference given) is reported as “lower than 1%”. Moreover, the Ki on human OAT3 [1] stood at 0.1 µM; at human OAT1, 0.69 µM. At human OAT1 (metabolite versus losartan), the “times more potent in inhibiting OAT1 than parent drug” value is reported as 16.5 times. Moreover, the “times more potent in inhibiting OAT3 than parent drug” value on human OAT3 [2] (metabolite versus losartan) is 3.6 times.
On to `Cc1ccc(C(=O)c2ccc(CC(=O)O[C@@H]3O[C@H](C(=O)O)[C@@H](O)[C@H](O)[C@H]3O)n2C)cc1` [Tolmetin β-D-glucuronide], for which the Ki at human OAT1 (read-out: Ki (OAT1)) was determined as 7.17 µM; on human OAT3 [2] (read-out: Ki (OAT3)), 2.92 µM.
Consider `CSc1ccc(/C=C2/C(C)=C(CC(=O)O)c3cc(F)ccc32)cc1` [Sulindac sulfide], for which, in data set [4] (setting [7]), the Cmax is 22.6 µM. Further, the “Unbound Fraction” value in data set [4] (setting [7]) is recorded as 6.01%; in data set [4] (setting [8]), 4.6%. The figures for the Ki at human OAT3 [1] and at human OAT1 were 0.66 µM and 3.68 µM, respectively.
Take `COc1ccc2cc([C@H](C)C(=O)O[C@@H]3O[C@H](C(=O)O)[C@@H](O)[C@H](O)[C@H]3O)ccc2c1` [(S)-naproxen acyl-β-D-glucuronide]: the Ki is greater than 200 µM at human OAT1 (read-out: Ki (OAT1)) and 5.43 µM at human OAT3 [2] (read-out: Ki (OAT3)).
Regarding `CN(CCOc1ccc(CC2SC(=O)NC2=O)cc1)c1ccc(O[C@@H]2O[C@H](C(=O)O)[C@@H](O)[C@H](O)[C@H]2O)cn1` (stereo partly drawn) [5-Hydroxy Rosiglitazone β-D-Glucuronide], the Ki at human OAT1 (read-out: Ki (OAT1)) and on human OAT3 [2] (read-out: Ki (OAT3)) was greater than 200 µM each time.
For the compound `Cc1ccc(NC(=O)c2ccc(CN3CC[N+](C)([O-])CC3)cc2)cc1Nc1nccc(-c2cccnc2)n1` [Imatinib (piperidine)-4-oxide], the Ki was greater than 200 µM on human OAT1 (read-out: Ki (OAT1)) and 64.2 µM at human OAT3 [2] (read-out: Ki (OAT3)).
With `CC(=O)C[C@@H](c1ccccc1)c1c(O)c2ccc(O)cc2oc1=O` [(S)-7-hydroxy warfarin], the Ki on human OAT1 (read-out: Ki (OAT1)) was found to be 14.5 µM; at human OAT3 [2] (read-out: Ki (OAT3)), 1.93 µM.
In turn, `C[C@]12CC[C@@H]3c4ccc(OS(=O)(=O)O)cc4CC[C@H]3[C@@H]1CCC2=O` [Estrone sulfate, reference compound] displayed a Ki at human OAT3 [3] of 1 µM.
In the case of `C[C@]12CC[C@H](O)CC1=CC[C@@H]1[C@@H]2CC[C@]2(C)C(c3cccnc3)=CC[C@@H]12` [Abiraterone, reference compound], the highest concentration (Cmax) in data set [4] (ref https://doi.org/10.1002/cpdd.132) was 0.37 µM. The “basic pKa” value in data set [5] is listed as 5.19. Besides, the Ki on human OAT3 [1] and on human OAT1 was greater than 20 µM each time.
On to 4-Hydroxy flurbiprofen, for which the Ki came out at 1.6 µM on human OAT1 (read-out: Ki (OAT1)) and 1.39 µM at human OAT3 [2] (read-out: Ki (OAT3)).
With `O=c1n(CCCN2CCN(c3ccc(O)c(Cl)c3)CC2)nc2ccccn12` [4-hydroxy-trazodone], the Ki is greater than 200 µM at human OAT1 (read-out: Ki (OAT1)) and 16.9 µM at human OAT3 [2] (read-out: Ki (OAT3)).
For `CC(C(=O)O)c1cccc(C(=O)c2ccccc2)c1` (stereo not drawn) [Ketoprofen, reference compound], the Ki was 1.73 µM at human OAT1 and 1.61 µM on human OAT3 [2].
Consider `O=C1NC(=O)C(Cc2ccc(OCCNc3ccccn3)cc2)S1` (stereo not drawn) [N-desmethyl rosiglitazone], for which the Ki stood at 33.3 µM at human OAT1 (read-out: Ki (OAT1)) and 1.15 µM at human OAT3 [2] (read-out: Ki (OAT3)).
For the compound `Cc1ccc(-c2cc(C(F)(F)F)nn2-c2ccc(S(N)(=O)=O)cc2)cc1` [Celecoxib, reference compound], the Ki on human OAT3 [1] and on human OAT1 was greater than 200 µM each time.
On human OAT3 [1], `COc1ccc2c(c1)c(CC(=O)O)c(C)n2C(=O)c1ccc(Cl)cc1` [Indomethacin] yielded a Ki of 0.11 µM.
Regarding `O=c1n(CCCN2CCN(c3cccc(Cl)c3)CC2)nc2ccccn12` [Trazodone, reference compound], the inhibition constant (Ki) on human OAT3 [1] is 2.94 µM; on human OAT1, 19.9 µM.
Take `CC(=O)CC(c1ccccc1)c1c(O)c2ccccc2oc1=O` (stereo not drawn) [Warfarin, reference compound]: the Ki at human OAT1 turned out to be 15.8 µM; at human OAT3 [2] it was 3.11 µM.
With `CC(C)c1nc(N(C)S(C)(=O)=O)nc(-c2ccc(F)cc2)c1/C=C/[C@@H](O)C[C@@H](O)CC(=O)O` [rosuvastatin], in data set [6], the “renal clearance as share of total plasma clearance” value was 28% and the “share of renal clearance thought to result from OAT3-mediated tubular secretion” value is listed as 90%.
Regarding `COc1ccc(Cl)cc1C(=O)NCCc1ccc(S(=O)(=O)NC(=O)NC2CCCCC2)cc1` [Glyburide, reference compound], the results for the Ki at human OAT3 [1] and at human OAT1 were 0.21 µM and 5.7 µM, respectively.
As to `Cc1ccc(C(=O)c2ccc(CC(=O)O)n2C)cc1` [Tolmetin, reference compound], the Ki on human OAT3 [1] came to 0.81 µM; at human OAT1, 3.01 µM.
Take `COc1ccc(Cl)cc1C(=O)NCCc1ccc(S(=O)(=O)NC(=O)N[C@H]2CCC[C@@H](O)C2)cc1` (relative stereo) [3-cis-hydroxycyclohexyl glyburide]: the Ki at human OAT1 (read-out: Ki (OAT1), HEK293 cells stably transfected with OAT1, 2 μM 6CF, 3 min, 37 °C, […]) came out at 10.1 µM; at human OAT3 [2] (read-out: Ki (OAT3)) it was 0.81 µM.
